Laboratory results from PubChem BioAssay (NCI).
Several values for one entry are separate records, joined by “and”; a condition that tells them apart may be missing. Equal entries are not always repeated.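 Tested at 5 concentrations; 48 h exposure; 96-well plates; endpoints linearly interpolated, else capped at highest concentration. GI50 is the concentration that inhibits growth by half. TGI is the concentration that stops growth completely.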

What was measured:
Assay in all cases: NCI-60 cell line screen, 48 h
DMS 114 small cell lung = system: DMS 114 small cell lung
HOP-18 NSCLC = system: HOP-18 NSCLC
LXFL 529 NSCLC = system: LXFL 529 NSCLC
MDA-N = system: MDA-N
SNB-78 CNS = system: SNB-78 CNS
XF 498 CNS = system: XF 498 CNS
RXF-631 renal = system: RXF-631 renal

`CCN(CC)CCC(=O)O[C@H]1CC[C@H](CC(C)[C@H]2CC(=O)C(C)C=C(C)[C@H](OC(=O)CCN(CC)CC)C(OC)C(=O)[C@@H](C)CC(C)/C=C/C=C/C=C(C)C(OC)CC3CC[C@H](C)[C@](O)(O3)C(=O)C(=O)N3CCCCC3C(=O)O2)CC1OC` (stereo partly specified) was tested, and the TGI (DMS 114 small cell lung) was 1.54 µM, the TGI (HOP-18 NSCLC) was 3.35 µM and the TGI (LXFL 529 NSCLC) was 1.74 µM. For the same compound, the GI50 (MDA-N) was 1.96 µM, the TGI (MDA-N) was 4.38 µM and 2.12 µM and the TGI (SNB-78 CNS) was 1.7 µM.

With `COc1ccc(/C(C#N)=C(/N)SCc2ccccc2Cl)cc1` the TGI (DMS 114 small cell lung) was 37.1 µM, the TGI (HOP-18 NSCLC) was 38.2 µM and the TGI (LXFL 529 NSCLC) was 31.2 µM. It also gave a TGI (SNB-78 CNS) of 64.2 µM and a TGI (XF 498 CNS) of 30.3 µM.

`C=C(C)C(=O)O[C@H]1CC2=CC(CC(C)=C[C@H]3OC(=O)C(=C)C13)OC2=O` (stereo partly specified) gave a TGI (MDA-N) of 89.4 µM.

In the case of `CC(=O)O[C@H]1CC[C@@]2(C)C(=C/C(=N\[N+](=O)[O-])[C@H]3C4CCC([C@H](C)CCCC(C)C)[C@@]4(C)CCC32)C1` (stereo partly specified), the TGI (DMS 114 small cell lung) is reported as > 100 µM, the TGI (LXFL 529 NSCLC) is reported as > 100 µM and the TGI (XF 498 CNS) is reported as > 100 µM.

`CC(C)=CCc1cc(C2COc3cc4c(c(O)c3C2=O)C=CC(C)(C)O4)c(O)cc1O` (stereo unspecified) showed a TGI (MDA-N) of 27.5 µM.

With `O=c1[nH]cnc2c1ncn2CCCCO` the TGI (DMS 114 small cell lung) was > 100 µM, the TGI (HOP-18 NSCLC) was > 100 µM and the TGI (LXFL 529 NSCLC) was > 100 µM. The TGI (SNB-78 CNS) was > 100 µM.

For `Cc1ccc(Nc2nc(C)c(C(/C=C/c3ccc4c(c3)OCO4)=N/Nc3ccc([N+](=O)[O-])cc3[N+](=O)[O-])s2)c([N+](=O)[O-])c1`, the TGI (DMS 114 small cell lung) was > 100 µM, the TGI (HOP-18 NSCLC) was 63.7 µM and the TGI (LXFL 529 NSCLC) was > 100 µM. The TGI (RXF-631 renal) was > 100 µM, the TGI (SNB-78 CNS) was > 100 µM and the TGI (XF 498 CNS) was 56.2 µM.

In the case of `OC1c2ccccc2C2C(O)c3ccccc3C12` (stereo unspecified), the TGI (DMS 114 small cell lung) is reported as > 100 µM, the TGI (HOP-18 NSCLC) is reported as > 100 µM and the TGI (LXFL 529 NSCLC) is reported as > 100 µM. For the same compound, the TGI (RXF-631 renal) was > 100 µM.

With `CC1=C(C(=O)Nc2ccccc2C)C(c2ccccc2C)C(C(=O)Nc2ccccc2C)=C(C)N1` the TGI (DMS 114 small cell lung) was > 100 µM, the TGI (HOP-18 NSCLC) was 37 µM and the TGI (LXFL 529 NSCLC) was > 10 µM. For the same compound, the TGI (RXF-631 renal) was > 100 µM, the TGI (SNB-78 CNS) was > 100 µM and the TGI (XF 498 CNS) was 39.2 µM.

`CN(C)CC1=Nc2cccc3cccc(c23)N1` was tested, and the TGI (MDA-N) was 35 µM.

With `Cn1c2ccccc2c2[nH]c3ccccc3c(=O)c21` the TGI (MDA-N) was > 100 µM.

With `COc1cc(/C=C\c2ccc(Cl)cc2)cc(OC)c1OC` the TGI (DMS 114 small cell lung) was > 91.8 µM, the TGI (HOP-18 NSCLC) was > 100 µM and the TGI (LXFL 529 NSCLC) was > 95.1 µM. The TGI (RXF-631 renal) was > 100 µM and the TGI (XF 498 CNS) was 19.1 µM.

`CC1CC(=O)c2c(ccc3c2C(=O)c2cccc(O)c2C3=O)C1` (stereo unspecified) was tested, and the TGI (DMS 114 small cell lung) was 25.4 µM, the TGI (HOP-18 NSCLC) was 21.2 µM and the TGI (LXFL 529 NSCLC) was 14.1 µM. The TGI (RXF-631 renal) was 29.8 µM, the TGI (SNB-78 CNS) was 45.7 µM and the TGI (XF 498 CNS) was 25.1 µM.

In the case of `O=C1OC(OC/C(Br)=C(/Br)COC2OC(=O)C(Cl)=C2Cl)C(Cl)=C1Cl` (stereo unspecified), the TGI (MDA-N) is reported as 21.5 µM.

`COc1ccc(OC)c(/C=N/N=C2\C(=O)Nc3c(Cl)cc(Cl)cc32)c1` was tested, and the TGI (MDA-N) was 40.9 µM.

`CCOC(=O)c1cn(CC)c2cc3c(cc2c1=O)SCS3` was tested, and the TGI (DMS 114 small cell lung) was > 100 µM, the TGI (HOP-18 NSCLC) was > 100 µM and the TGI (LXFL 529 NSCLC) was > 100 µM. The TGI (RXF-631 renal) was > 100 µM.

`CCSC(=O)C1(C)OC2CCCCC2C1=O` (stereo unspecified) was tested, and the TGI (DMS 114 small cell lung) was > 100 µM, the TGI (HOP-18 NSCLC) was > 100 µM and the TGI (LXFL 529 NSCLC) was > 100 µM. The TGI (SNB-78 CNS) was > 100 µM.

For `CCOC(=O)C1Oc2ccc([N+](=O)[O-])cc2C1(C)O` (stereo unspecified), the TGI (DMS 114 small cell lung) was > 100 µM, the TGI (LXFL 529 NSCLC) was > 100 µM and the TGI (SNB-78 CNS) was > 100 µM. For the same compound, the TGI (XF 498 CNS) was > 100 µM.

In the case of `O=C1NN=CN2C(=O)CCC12` (stereo unspecified), the TGI (DMS 114 small cell lung) is reported as > 100 µM, the TGI (LXFL 529 NSCLC) is reported as > 100 µM and the TGI (RXF-631 renal) is reported as > 100 µM. The TGI (SNB-78 CNS) was > 100 µM and the TGI (XF 498 CNS) was > 100 µM.

Work on `COC1C(O)C(C)OC(O[C@@H]2C[C@H]3CC[C@@H]4[C@H](CC[C@]5(C)[C@@H](C6=CC(=O)OC6)CC[C@]45O)[C@@]3(C)[C@H](O)C2)C1O` (stereo partly specified) yielded a TGI (MDA-N) of 0.0838 µM.

In the case of `Cc1cc(C)nc(NS(=O)(=O)c2ccc(NC(=O)c3cccc4c(N)c5ccccc5nc34)cc2)n1`, the TGI (DMS 114 small cell lung) is reported as > 100 µM, the TGI (LXFL 529 NSCLC) is reported as > 100 µM and the TGI (SNB-78 CNS) is reported as > 100 µM. For the same compound, the TGI (XF 498 CNS) was > 100 µM.

For `NNC(=S)N/N=C(/C(=O)Nc1ccc([N+](=O)[O-])cc1)c1nc2ccc([N+](=O)[O-])cc2[nH]c1=O`, the TGI (DMS 114 small cell lung) was > 100 µM, the TGI (HOP-18 NSCLC) was > 100 µM and the TGI (SNB-78 CNS) was > 100 µM. The TGI (XF 498 CNS) was > 100 µM.

For `COC(=O)C1C(/C=C/c2ccoc2)ON2CCC[C@@H]12` (stereo partly specified), the TGI (DMS 114 small cell lung) was > 100 µM, the TGI (HOP-18 NSCLC) was 98 µM and the TGI (LXFL 529 NSCLC) was > 100 µM. For the same compound, the TGI (SNB-78 CNS) was > 100 µM.

For `O=C1NN=C(c2ccc([N+](=O)[O-])cc2)C1n1nc(-c2ccccc2)c2ccccc2c1=O` (stereo unspecified), the TGI (HOP-18 NSCLC) was > 100 µM, the TGI (LXFL 529 NSCLC) was > 100 µM and the TGI (RXF-631 renal) was > 100 µM. The TGI (SNB-78 CNS) was > 100 µM and the TGI (XF 498 CNS) was > 100 µM.

`CN(C)C(=S)SCC(N)=O` was tested, and the TGI (MDA-N) was > 100 µM.

With `CCOC(=O)/C=C1\Oc2ccccc2C1(C)O` (stereo unspecified) the TGI (DMS 114 small cell lung) was > 100 µM, the TGI (HOP-18 NSCLC) was > 100 µM and the TGI (LXFL 529 NSCLC) was > 100 µM. For the same compound, the TGI (SNB-78 CNS) was > 100 µM.
